Source: ChEMBL document CHEMBL1201862, “PubChem BioAssay data set” (2004)
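These data come from cells grown in 96-well plates and exposed to compound for 48 hours at five concentrations. The concentration for 50% growth inhibition is given as GI50.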 Active and inactive are the calls of the source. Rule as the data show it: active = GI50 up to about 1.1 µM and inactive = higher.

Experiments:
Assay in all cases: inhibition of tumour cell growth, NCI panel, 48 h
[1] = test system: NCI/ADR-RES
[2] = test system: SNB-75
[3] = test system: ACHN
[4] = test system: M19-MEL
[5] = test system: SK-MEL-5
[6] = test system: BT-549
[7] = test system: CAKI-1
[8] = test system: RPMI-8226
[9] = test system: HL-60
[10] = test system: SK-MEL-2
[11] = test system: 786-0
[12] = test system: NCI-H522
[13] = test system: SK-OV-3
[14] = test system: UO-31
[15] = test system: EKVX
[16] = test system: UACC-62
[17] = test system: COLO 205
[18] = test system: MCF7
[19] = test system: NCI-H23
[20] = test system: SN12C

| Structure (SMILES) | GI50 [1] | GI50 [2] | GI50 [3] | GI50 [4] | GI50 [5] | GI50 [6] | GI50 [7] | GI50 [8] | GI50 [9] | GI50 [10] | GI50 [11] | GI50 [12] | GI50 [13] | GI50 [14] | GI50 [15] | GI50 [16] | GI50 [17] | GI50 [18] | GI50 [19] | GI50 [20] |
| --- | --- | --- | --- | --- | --- | --- | --- | --- | --- | --- | --- | --- | --- | --- | --- | --- | --- | --- | --- | --- |
| N#C/C(=C\c1cc(O)c(O)c(O)c1)C(N)=O | > 93.1 µM (inactive) | 63.7 µM (inactive) | > 93.8 µM (inactive) | 45.3 µM (inactive) | > 69.5 µM (inactive) | 97.5 µM (inactive) | > 100 µM (inactive) | > 100 µM (inactive) | 37.8 µM (inactive) | > 100 µM (inactive) | 54.6 µM (inactive) | > 66.4 µM (inactive) | > 100 µM (inactive) | > 74.1 µM (inactive) | > 91 µM (inactive) | 72.6 µM (inactive) | > 100 µM (inactive) | > 39.4 µM (inactive) | > 100 µM (inactive) | > 84.3 µM (inactive) |
| CCN1CCC(O)(c2ccccc2)C(C(=O)c2ccccc2)C1 (centres undefined) |  | > 89.3 µM (inactive) | 16.7 µM (inactive) | 26.7 µM (inactive) | 33.7 µM (inactive) |  | 14 µM (inactive) | 6.35 µM (inactive) | 19.5 µM (inactive) | > 100 µM (inactive) | 17.1 µM (inactive) | 2.62 µM (inactive) | > 100 µM (inactive) | > 46.2 µM (inactive) | > 49.2 µM (inactive) | > 45.3 µM (inactive) | 22.4 µM (inactive) |  | > 53 µM (inactive) | 20.1 µM (inactive) |
| C/C(=N\NC(=S)N1CCC1)c1ccccn1 | 0.00332 µM (active) | 0.838 µM (active) | 0.01 µM (active) | 0.0815 µM (active) | < 0.0196 µM (active) | 11.5 µM (inactive) | 0.0398 µM (active) | 0.01 µM (active) | 0.01 µM (active) | 1.97 µM (inactive) | < 0.0239 µM (active) | < 0.0497 µM (active) | < 0.0131 µM (active) | 0.427 µM (active) | 0.0658 µM (active) | < 0.016 µM (active) | 0.01 µM (active) | 0.0015 µM (active) | 0.01 µM (active) |  |
| CN(C)/C(=N/C(=O)Nc1ccccc1)SCc1ccccc1 |  | > 100 µM (inactive) | > 100 µM (inactive) | > 100 µM (inactive) | > 100 µM (inactive) |  | > 100 µM (inactive) | > 100 µM (inactive) | > 100 µM (inactive) | 85.1 µM (inactive) | > 100 µM (inactive) | 91.2 µM (inactive) | > 100 µM (inactive) | > 100 µM (inactive) | > 100 µM (inactive) | > 100 µM (inactive) | > 100 µM (inactive) |  | > 100 µM (inactive) | > 100 µM (inactive) |
| O=C(O)CC12C3C4C5C3C1C5C42 (centres undefined) |  | 76.2 µM (inactive) | > 100 µM (inactive) | > 100 µM (inactive) | > 100 µM (inactive) |  | > 100 µM (inactive) | > 100 µM (inactive) | > 100 µM (inactive) | > 100 µM (inactive) | > 100 µM (inactive) | > 100 µM (inactive) | > 100 µM (inactive) | 68.9 µM (inactive) | > 100 µM (inactive) | > 100 µM (inactive) | > 100 µM (inactive) |  | > 100 µM (inactive) | > 100 µM (inactive) |
| CN(C)CC1CCC(CN(C)C)C1=O (centres undefined) | 23 µM (inactive) | 20.7 µM (inactive) | 4.7 µM (inactive) | 3.43 µM (inactive) | 8.26 µM (inactive) |  | 0.736 µM (active) | 0.541 µM (active) | 0.294 µM (active) | 14.1 µM (inactive) | 1.93 µM (inactive) | 0.114 µM (active) | 16.8 µM (inactive) | 7.67 µM (inactive) | 4.53 µM (inactive) | 13.9 µM (inactive) | 0.608 µM (active) | 0.458 µM (active) | 4.05 µM (inactive) | 6.89 µM (inactive) |
| CCCCCCCCCCCCCC1CCC(CC)N1 (centres undefined) |  | 7.28 µM (inactive) | 7.23 µM (inactive) | 3.18 µM (inactive) | 17.8 µM (inactive) |  | 15.8 µM (inactive) | 14 µM (inactive) | 5.14 µM (inactive) | 21.8 µM (inactive) | 17.5 µM (inactive) | 18.2 µM (inactive) | 17 µM (inactive) | 14.2 µM (inactive) | 16.9 µM (inactive) | 6.98 µM (inactive) | 15.1 µM (inactive) |  | 18.6 µM (inactive) | 11.3 µM (inactive) |
| CC1(Cl)C(=O)NC(=O)N(C2CC(N=[N+]=[N-])C(CO)O2)C1N=[N+]=[N-] (centres undefined) |  | > 100 µM (inactive) | > 100 µM (inactive) | > 100 µM (inactive) | > 100 µM (inactive) |  | > 100 µM (inactive) | > 100 µM (inactive) | > 100 µM (inactive) | > 100 µM (inactive) | > 100 µM (inactive) | > 100 µM (inactive) | > 100 µM (inactive) | > 100 µM (inactive) | > 100 µM (inactive) | > 100 µM (inactive) | > 100 µM (inactive) |  | > 100 µM (inactive) | > 100 µM (inactive) |
| CCOC(=O)C(CNc1ccc(O)cc1)NC(=O)c1ccccc1 (centres undefined) |  | > 100 µM (inactive) | 54.8 µM (inactive) | 47 µM (inactive) | > 100 µM (inactive) |  | > 100 µM (inactive) | 53.6 µM (inactive) | 25.6 µM (inactive) | > 100 µM (inactive) | 64.3 µM (inactive) | 75.3 µM (inactive) | > 100 µM (inactive) | > 100 µM (inactive) | > 100 µM (inactive) | > 53.7 µM (inactive) | > 100 µM (inactive) |  | > 100 µM (inactive) | > 100 µM (inactive) |
| Cc1ccc(C(=O)Oc2ccccc2)cc1/N=N/N(C)C | > 100 µM (inactive) |  | > 100 µM (inactive) | > 100 µM (inactive) | > 100 µM (inactive) | > 100 µM (inactive) | > 100 µM (inactive) | > 100 µM (inactive) | 78 µM (inactive) | > 100 µM (inactive) | > 100 µM (inactive) | 42.7 µM (inactive) | > 100 µM (inactive) | > 100 µM (inactive) | > 100 µM (inactive) | > 100 µM (inactive) | > 100 µM (inactive) | 36.8 µM (inactive) | > 58.6 µM (inactive) | > 100 µM (inactive) |
| Cc1c2cc[n+](C)cc2c(C)c2c1oc1ccccc12 | > 100 µM (inactive) | 1.98 µM (inactive) | 39.6 µM (inactive) | 2.64 µM (inactive) | 3.41 µM (inactive) | 0.608 µM (active) | 28.4 µM (inactive) | 4.2 µM (inactive) | 12 µM (inactive) | 4.13 µM (inactive) | 1.17 µM (inactive) | 1.95 µM (inactive) | 14.7 µM (inactive) | 68.7 µM (inactive) | 5.5 µM (inactive) | 5.62 µM (inactive) | 3.51 µM (inactive) | 6.37 µM (inactive) | 2.24 µM (inactive) | 0.475 µM (active) |
